Where two headings read alike, the source gives them in different places.
Legend:
Caco-2 cells = settings: cited from earlier work
[1] = cited from earlier work
[2] = set-up: method as in PMID 25840123; settings: cited from earlier work
[3] = cited from earlier work; remark: listed apart in the source
[4] = Franz–PAMPA permeation study (lipid-impregnated artificial membrane on Franz cells); settings: for Papp at 12 h, 10 mg/mL: PAMPA; for Permeability classification in Franz–PAMPA: metoprolol as high permeability marker, best fit method
[5] = pH 7.4; cited from earlier work
[6] = Dose number (D0) in donor compartment; type: physicochemical; settings: 10 mg/mL in donor, not under infinite dose conditions
[7] = fraction of dose absorbed in humans; cited from earlier work
[8] = cited from earlier work; remark: listed apart in the source
in vitro = settings: PAMPA
[9] = Permeation across non-impregnated membrane on Franz cells; type: in vitro ADME; settings: PAMPA, pH 7.4; as worded; read-out: Papp non-impregnated one across Franz–PAMPA
[10] = pH 7.4, Papp Franz–PAMPA, PBS pH 7.4, 37 °C, 500 rpm, 12 h, n = 3, best fit of linear portion (sink equation)
[11] = pH 7.4, Papp Non-Sink Arthurson, Franz–PAMPA data, non-sink equation
[12] = pH 7.4, Papp Non-Sink Arthurson
[13] = pH 7.4, Papp across Franz–PAMPA

Row | Structure (SMILES) | Papp at 12 h, 10 mg/mL [4, 10] [nm/s] | Papp at 12 h, 10 mg/mL [4, 11] [nm/s] | D0 [6] | Papp Caco-2 (Caco-2 cells) [nm/s] | Papp Corti [1] [nm/s] | Log D pH 7.4 [3] | Papp PAMPA pH 7,4 [5] | Fa(%) [7] [%] | Intrinsic Solubility [8] [mg/mL] | further results
1 | Nc1nc2c(ncn2COCCO)c(=O)[nH]1 [Acyclovir] | 4 | 4 |  | 3 | 91 | −1.7 |  |  |  | Papp Permeapad™ [2]: 79 nm/s; LogP [3]: −1.7
2 | CC1(C)S[C@@H]2[C@H](NC(=O)[C@H](N)c3ccc(O)cc3)C(=O)N2[C@H]1C(=O)O [Amoxicillin] | 8.5 | 0.7 |  | 8 |  |  | 1.5 × 10^−6 cm/s |  |  | LogP [3]: 0.9
3 | Cn1c(=O)c2c(ncn2C)n(C)c1=O [Caffeine] | 362 | 533 | ≤ 0.01 |  | 411 |  | 10.8 × 10^−6 cm/s |  |  | Papp Permeapad™ [2]: 204 nm/s; Permeability classification in Franz–PAMPA [4]: highly permeable
4 | NC(=O)N1c2ccccc2C=Cc2ccccc21 [Carbamazepine] | 59.7 |  |  |  |  |  |  | 100 | 0.12 | 
5 | CN/C(=N/CCSCc1nc[nH]c1C)NC#N [Cimetidine] | 356 | 310 |  | 7 |  | 0.4 |  | 93 | 6.0 | Permeability classification in Franz–PAMPA [4]: highly permeable
6 | O=C(O)Cc1ccccc1Nc1c(Cl)cccc1Cl [Diclofenac] |  |  |  |  |  | 1.2 |  | 100 |  | Permeability classification in Franz–PAMPA: highly permeable; Papp at 12 h, 10 mg/mL (in vitro; pH 7.4, Papp Franz–PAMPA): 681 nm/s; Papp at 12 h, 10 mg/mL (in vitro; [12]): 1050 nm/s
7 | NS(=O)(=O)c1cc2c(cc1Cl)NCNS2(=O)=O [Hydrochlorothiazide] |  |  |  | 5 | 310 |  | 0.1 × 10^−6 cm/s | 70 |  | Papp at 12 h, 10 mg/mL (in vitro; pH 7.4, Papp Franz–PAMPA): 27.4 nm/s; Papp at 12 h, 10 mg/mL (in vitro; [12]): 27 nm/s
8 | CC(C)Cc1ccc(C(C)C(=O)O)cc1 (stereo not shown) [Ibuprofen] |  |  |  |  |  | 0.7 | 6.8 × 10^−6 cm/s | 93 | 0.01 | Papp Permeapad™ [2]: 166 nm/s; LogP [3]: 3.1
9 | OC[C@@H](O)[C@@H](O)[C@H](O)[C@H](O)CO [Mannitol] |  |  |  |  |  |  |  |  |  | Papp at 10 mg/mL [9]: 3.2 nm/s; Papp at 12 h, 10 mg/mL [4, 13]: 3.2 nm/s
10 | C[C@](N)(Cc1ccc(O)c(O)c1)C(=O)O [Methyldopa] |  |  |  | 2 | 32 |  |  | 41 |  | LogP [3]: 0.4
11 | COc1ccc2cc([C@H](C)C(=O)O)ccc2c1 [Naproxen] |  |  | ≤ 0.01 |  |  |  |  |  |  | 
12 | CN1C(C(=O)Nc2ccccn2)=C(O)c2ccccc2S1(=O)=O [Piroxicam] | 110 | 96 |  | 356 |  | −0.07 | 8.2 × 10^−6 cm/s | 100 | 0.11 | Permeability classification in Franz–PAMPA [4]: low permeability drugs
13 | CC(C)NCC(O)COc1cccc2ccccc12 (stereo not shown) [Propranolol] | 331 | 884 | ≤ 0.01 | 419 | 397 |  | 23.5 × 10^−6 cm/s |  | 33.0 | Permeability classification in Franz–PAMPA [4]: highly permeable
14 | Cn1c(=O)c2[nH]cnc2n(C)c1=O [Theophylline] |  |  |  |  |  | −0.05 |  |  | 8.33 | 

The next lines start with results.

Row | Papp at 12 h, 10 mg/mL [4, 10] [nm/s] | Papp at 12 h, 10 mg/mL [4, 11] [nm/s] | D0 [6] | Structure (SMILES) | Papp Caco-2 (Caco-2 cells) [nm/s] | Papp Corti [1] [nm/s] | Log D pH 7.4 [3] | Papp PAMPA pH 7,4 [5] | Fa(%) [7] [%] | Intrinsic Solubility [8] [mg/mL] | further results
15 |  |  | ≤ 0.01 | CC(C)NCC(O)COc1ccc(CC(N)=O)cc1 (stereo not shown) [Atenolol] |  |  |  |  |  |  | 
16 | 121 |  |  | CC(C(=O)O)c1cccc(C(=O)c2ccccc2)c1 (stereo not shown) [Ketoprofen] | 201 | 427 |  | 16.7 × 10^−6 cm/s |  |  | 
17 | 158 | 590 | ≤ 0.01 | COCCc1ccc(OCC(O)CNC(C)C)cc1 (stereo not shown) [Metoprolol] | 237 | 481 |  | 3.5 × 10^−6 cm/s |  | 1000.0 | Papp at 10 mg/mL [9]: 161 nm/s; Papp Permeapad™ [2]: 10 nm/s; Papp at 12 h, 10 mg/mL [4, 13]: 161 nm/s
18 | 68.1 | 53 | ≤ 0.01 | CNC(=C[N+](=O)[O-])NCCSCc1ccc(CN(C)C)o1 [Ranitidine] | 5 | 215 | −0.3 | 0.5 × 10^−6 cm/s |  | 100.0 | 
19 | 66.1 | 77 |  | COc1cc(Cc2cnc(N)nc2N)cc(OC)c1OC [Trimethoprim] | 830 | 455 |  | 5.0 × 10^−6 cm/s | 97 |  | 

Source: PMC7589491, “Biomimetic Artificial Membrane Permeability Assay over Franz Cell Apparatus Using BCS Model Drugs” (Pharmaceutics, 2020)
